This note sets out measurements from patent publication US8252751B2, “Organic compounds” (Novartis AG, priority 2007, dated 2012).

What all share (type): biochemical
Assay [1] deals with T1, endogenous human DPP-IV from plasma sample (Homo sapiens, UniProt P27487).
T1 construct: endogenous human DPP-IV from plasma sample, male donors; from tissue; host or cells: human blood plasma, male donors, diluted to 50% plasma content
The experiment in a line: human plasma DPP-IV IC50 assay, (H-Ala-Pro)2-Rh110 fluorescence intensity. The following applies: for IC50: 50% plasma. From the text: FI measurements using a Rh110 dye were done with a Safire2 reader (TECAN, Maennedorf, Switzerland). The Safire2 is a monochomator-based instrument and wavelengths of 485 nm and 535 nm were taken for fluorescence excitation and emission acquisition, respectively. The bandwidths were set to 20 nm in both the excitation and the emission path.
(§1) The data from the independent assay runs was averaged and plotted using program of Origin 7.5SR6 (OriginLab Corporation, Northampton, Mass., USA). Origin's built-in non-linear regression routine was used to fit the averaged data to the ‘logistics’ function y=A2+(A1−A2)/(1+(x/IC50)^p) (Equation 1) where y is the %-inhibition at the inhibitor concentration, x. A1 is the lowest inhibition value, i.e. 0%, and A2 the maximum inhibition value, i.e. 100%. The exponent, p, is the Hill coefficient. B. Determination of IC50 Values […]
(§2) For the determination of IC50 values, the assays were performed at room temperature in 384-well plates. All final assay volumes were 30 μl. Test compounds were dissolved in 90% (v/v) DMSO/water and diluted in water (containing 0.05% (w/v) CHAPS) to 3-times the desired assay concentration. For each assay, 10 μl water/CHAPS (±test compound) were added per well, followed by 10 μl protease solution (diluted with assay buffer; for final assay concentration cf. § Assay conditions). After 1 hour of incubation at room temperature, the reaction was started by addition of 10 μl substrate solution (for final concentrations cf. § Assay conditions). […] The effect of the compound on the enzymatic activity was obtained from the linear progress curves and determined from two readings, the first one taken directly after the addition of substrate (t=0 min) and the second one after 1 hour (t=60 min). The IC50 value was calculated from the plot of percentage of inhibition vs. inhibitor concentration using non-linear regression analysis software (XLfit, Vers. 4.0; ID Business Solution Ltd., Guildford, Surrey, UK). […]

For a further assay, the target named is T2, human FAP (Homo sapiens, UniProt Q12884).
T2 construct: human FAPa covering amino acid 27-760 excluding the cytoplasmic and transmebrane domains; made in house; host or cells: insect cells (baculovirus expression system)
T2 sequence (Q12884 27-760): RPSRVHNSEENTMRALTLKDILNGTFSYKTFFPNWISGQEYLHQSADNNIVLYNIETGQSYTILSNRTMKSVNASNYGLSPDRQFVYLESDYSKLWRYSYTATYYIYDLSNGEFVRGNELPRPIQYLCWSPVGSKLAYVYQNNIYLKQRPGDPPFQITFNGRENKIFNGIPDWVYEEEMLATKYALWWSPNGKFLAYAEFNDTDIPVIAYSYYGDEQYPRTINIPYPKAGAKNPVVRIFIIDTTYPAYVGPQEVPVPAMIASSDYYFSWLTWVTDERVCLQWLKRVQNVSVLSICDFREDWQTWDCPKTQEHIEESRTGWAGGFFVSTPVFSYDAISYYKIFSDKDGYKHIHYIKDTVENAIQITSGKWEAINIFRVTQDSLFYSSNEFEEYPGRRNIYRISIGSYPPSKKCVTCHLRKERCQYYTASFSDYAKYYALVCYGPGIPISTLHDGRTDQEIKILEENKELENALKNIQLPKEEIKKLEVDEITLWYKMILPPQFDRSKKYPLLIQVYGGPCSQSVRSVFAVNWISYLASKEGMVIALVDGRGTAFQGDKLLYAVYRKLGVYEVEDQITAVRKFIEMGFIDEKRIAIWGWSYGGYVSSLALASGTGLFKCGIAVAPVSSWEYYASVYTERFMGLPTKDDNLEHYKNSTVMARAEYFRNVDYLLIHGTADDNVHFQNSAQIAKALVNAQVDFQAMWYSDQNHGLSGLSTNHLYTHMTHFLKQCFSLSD
The experiment in a line: FAP (fibroblast activation protein, alpha) IC50 assay, Z-Gly-Pro-AMC fluorescence intensity.
Source text: (§3) For fluorescence intensity (FI) measurements with AMC as dye, an Ultra Evolution reader (TECAN, Maennedorf, Switzerland) was used. The instrument was equipped with a combination of a 350 nm (20 nm bandwidth) and a 500 nm (25 nm bandwidth) bandpath filter for fluorescence excitation and emission acquisition, respectively. To increase the signal:background ratio, an appropriate dichroic mirror was employed. All filters and the dichroic mirror were purchased from TECAN.
The data from the independent assay runs was averaged and plotted using program of Origin 7.5SR6 (OriginLab Corporation, Northampton, Mass., USA). Origin's built-in non-linear regression routine was used to fit the averaged data to the ‘logistics’ function y=A2+(A1−A2)/(1+(x/IC50)^p) (Equation 1) where y is the %-inhibition at the inhibitor concentration, x. A1 is the lowest inhibition value, i.e. 0%, and A2 the maximum inhibition value, i.e. 100%. The exponent, p, is the Hill coefficient. B. Determination of IC50 Values
as §2

The next assay addresses T3, human DPP-9 (Homo sapiens, UniProt Q86TI2).
T3 construct: human DPP-9 covering amino acid 1-863; made in house; host or cells: Pichia pastoris
The experiment in a line: DPP-9 (dipeptidyl-peptidase 9) IC50 assay, Gly-Pro-AMC fluorescence intensity.
Source text: as §3, §1
(§4) For the determination of IC50 values, the assays were performed at room temperature in 384-well plates. All final assay volumes were 30 μl. Test compounds were dissolved in 90% (v/v) DMSO/water and diluted in water (containing 0.05% (w/v) CHAPS) to 3-times the desired assay concentration. For each assay, 10 μl water/CHAPS (±test compound) were added per well, followed by 10 μl protease solution (diluted with assay buffer; for final assay concentration cf. § Assay conditions). After 1 hour of incubation at room temperature, the reaction was started by addition of 10 μl substrate solution (for final concentrations cf. § Assay conditions). The eleven final compound concentrations were either 0.9 nM, 3 nM, 9 nM, 30 nM, 90 nM, 300 nM, 900 nM, 3 μM, 9 μM, 30 μM and 90 μM or 3 nM, 10 nM, 30 nM, 100 nM, 300 nM, 1 μM, 3 μM, 10 μM, 30 μM, 100 μM and 300 μM. The effect of the compound on the enzymatic activity was obtained from the linear progress curves and determined from two readings, the first one taken directly after the addition of substrate (t=0 min) and the second one after 1 hour (t=60 min). The IC50 value was calculated from the plot of percentage of inhibition vs. inhibitor concentration using non-linear regression analysis software (XLfit, Vers. 4.0; ID Business Solution Ltd., Guildford, Surrey, UK).
5.—DPP-9 (dipeptidyl-peptidase 9) enzyme: human DPP-9 covering amino acid 1-863; expressed in and purified from Pichia pastoris substrate: Gly-Pro-AMC, purchased from Bachem (www.bachem.com), catalogue number I-1225 enzyme concentration: 1 nM substrate concentration: 10 μM assay buffer: 25 mM Tris, pH 7.4, 140 mM NaCl, 10 mM KCl, 0.05% (w/v) CHAPS

A further assay has as its target T4, human DPP-2 (Homo sapiens, UniProt Q9UHL4).
T4 construct: human DPP-2 covering amino acid 30-492; made in house; host or cells: insect cells (baculovirus expression system)
The experiment in a line: DPP-2 (dipeptidyl peptidase 2) IC50 assay, Nle-Pro-AMC fluorescence intensity.
Source text: as §3
The data from the independent assay runs was averaged and plotted using program of Origin 7.5SR6 (OriginLab Corporation, Northampton, Mass., USA). Origin's built-in non-linear regression routine was used to fit the averaged data to the ‘logistics’ function y=A2+(A1−A2)/(1+(x/IC50)^p) (Equation 1) where y is the %-inhibition at the inhibitor concentration, x. […]
For the determination of IC50 values, the assays were performed at room temperature in 384-well plates. […] The effect of the compound on the enzymatic activity was obtained from the linear progress curves and determined from two readings, the first one taken directly after the addition of substrate (t=0 min) and the second one after 1 hour (t=60 min). The IC50 value was calculated from the plot of percentage of inhibition vs. inhibitor concentration using non-linear regression analysis software (XLfit, Vers. 4.0; ID Business Solution Ltd., Guildford, Surrey, UK). […]

Another assay concerns the target T5, human DPP-8 (Homo sapiens, UniProt Q6V1X1).
T5 construct: human DPP-8 covering amino acid 1-882; made in house; host or cells: insect cells (baculovirus expression system)
The experiment in a line: DPP-8 (dipeptidyl-peptidase 8) IC50 assay, Gly-Pro-AMC fluorescence intensity.
Source text: as §3, §1, §4
4.—DPP-8 (dipeptidyl-peptidase 8) enzyme: human DPP-8 covering amino acid 1-882; expressed in and purified from insect cells (baculovirus expression system) substrate: Gly-Pro-AMC, purchased from Bachem (www.bachem.com), catalogue number I-1225 enzyme concentration: 0.05 nM substrate concentration: 10 μM assay buffer: 25 mM Tris, pH 7.4, 140 mM NaCl, 10 mM KCl, 0.05% (w/v) CHAPS

For a further assay, the target named is T6, human PEP (Homo sapiens, UniProt P48147).
T6 construct: human PEP covering amino acid 1-710; made in house; host or cells: Pichia pastoris
T6 sequence (P48147 1-710): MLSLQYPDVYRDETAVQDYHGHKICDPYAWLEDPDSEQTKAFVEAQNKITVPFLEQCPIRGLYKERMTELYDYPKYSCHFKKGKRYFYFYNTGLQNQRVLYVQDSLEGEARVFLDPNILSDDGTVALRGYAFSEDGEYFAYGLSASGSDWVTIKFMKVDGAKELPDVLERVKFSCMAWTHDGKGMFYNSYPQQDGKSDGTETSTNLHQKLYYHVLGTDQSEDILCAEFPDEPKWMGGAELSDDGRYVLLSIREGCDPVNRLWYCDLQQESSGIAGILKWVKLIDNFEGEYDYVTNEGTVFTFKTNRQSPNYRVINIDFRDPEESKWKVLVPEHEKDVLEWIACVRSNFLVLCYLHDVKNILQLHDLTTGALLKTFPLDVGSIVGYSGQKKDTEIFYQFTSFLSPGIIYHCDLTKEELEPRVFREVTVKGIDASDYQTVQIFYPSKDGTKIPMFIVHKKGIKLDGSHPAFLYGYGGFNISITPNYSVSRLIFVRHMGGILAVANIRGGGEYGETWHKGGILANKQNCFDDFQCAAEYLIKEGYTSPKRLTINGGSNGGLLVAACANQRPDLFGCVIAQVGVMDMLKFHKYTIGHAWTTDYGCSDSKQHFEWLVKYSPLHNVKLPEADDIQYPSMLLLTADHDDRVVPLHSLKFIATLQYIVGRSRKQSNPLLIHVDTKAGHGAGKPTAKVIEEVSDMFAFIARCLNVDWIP
The experiment in a line: PEP (prolyl-endopeptidase) IC50 assay, Z-Gly-Pro-AMC fluorescence intensity.
Source text: as §3, §1, §2

The target of the next assay is T7, human DPP-IV (Homo sapiens, UniProt P27487).
T7 construct: human DPP-IV covering amino acid 39-766; made in house; host or cells: insect cells (baculovirus expression system)
The experiment in a line: DPP-IV (dipeptidyl peptidase IV) IC50 assay, Gly-Pro-AMC fluorescence intensity.
Source text: as §3, §1, §4
2.—DPP-IV (dipeptidyl peptidase IV) enzyme: human DPP-IV covering amino acid 39-766; expressed in and purified from insect cells (baculovirus expression system) substrate: Gly-Pro-AMC, purchased from Bachem (www.bachem.com), catalogue number I-1225 enzyme concentration: 0.01 nM substrate concentration: 10 μM assay buffer: 25 mM Tris, pH 7.4, 140 mM NaCl, 10 mM KCl, 0.05% (w/v) CHAPS

The mark [2] stands for this setting: individual experiments 1-4, read-out: IC50 value.
[3] abbreviates: mean of 4 experiments, read-out: Mean IC50 value ± SD.

Values joined by “and” are separate entries in the source; they are usually repeats but may differ in a detail not shown here. Identical values can stand only once. Like-named read-outs stand apart in the source and are kept apart here.

T3 sequence (Q86TI2 whole entry): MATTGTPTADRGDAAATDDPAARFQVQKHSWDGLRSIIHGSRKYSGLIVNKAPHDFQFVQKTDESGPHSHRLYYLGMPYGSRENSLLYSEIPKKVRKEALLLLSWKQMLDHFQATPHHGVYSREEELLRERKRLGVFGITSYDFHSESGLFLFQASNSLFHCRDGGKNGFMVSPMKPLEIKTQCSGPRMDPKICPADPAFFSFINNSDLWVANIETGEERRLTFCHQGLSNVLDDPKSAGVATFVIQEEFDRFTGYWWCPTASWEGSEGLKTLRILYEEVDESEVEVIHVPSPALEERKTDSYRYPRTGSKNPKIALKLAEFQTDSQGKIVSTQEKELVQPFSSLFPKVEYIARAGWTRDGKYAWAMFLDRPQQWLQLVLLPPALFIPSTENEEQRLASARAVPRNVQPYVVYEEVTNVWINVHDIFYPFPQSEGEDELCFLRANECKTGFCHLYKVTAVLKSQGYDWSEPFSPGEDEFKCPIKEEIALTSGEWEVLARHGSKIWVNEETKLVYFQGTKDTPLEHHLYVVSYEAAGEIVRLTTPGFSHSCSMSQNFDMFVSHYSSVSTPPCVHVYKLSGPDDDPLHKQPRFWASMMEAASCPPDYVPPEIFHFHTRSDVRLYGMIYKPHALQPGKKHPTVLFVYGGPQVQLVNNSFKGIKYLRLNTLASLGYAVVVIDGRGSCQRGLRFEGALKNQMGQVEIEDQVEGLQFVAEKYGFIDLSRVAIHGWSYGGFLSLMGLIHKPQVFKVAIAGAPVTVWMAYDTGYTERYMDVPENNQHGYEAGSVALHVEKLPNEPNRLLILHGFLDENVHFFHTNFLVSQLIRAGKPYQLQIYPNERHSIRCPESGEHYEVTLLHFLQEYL
T1 sequence (P27487 39-766 limits assumed): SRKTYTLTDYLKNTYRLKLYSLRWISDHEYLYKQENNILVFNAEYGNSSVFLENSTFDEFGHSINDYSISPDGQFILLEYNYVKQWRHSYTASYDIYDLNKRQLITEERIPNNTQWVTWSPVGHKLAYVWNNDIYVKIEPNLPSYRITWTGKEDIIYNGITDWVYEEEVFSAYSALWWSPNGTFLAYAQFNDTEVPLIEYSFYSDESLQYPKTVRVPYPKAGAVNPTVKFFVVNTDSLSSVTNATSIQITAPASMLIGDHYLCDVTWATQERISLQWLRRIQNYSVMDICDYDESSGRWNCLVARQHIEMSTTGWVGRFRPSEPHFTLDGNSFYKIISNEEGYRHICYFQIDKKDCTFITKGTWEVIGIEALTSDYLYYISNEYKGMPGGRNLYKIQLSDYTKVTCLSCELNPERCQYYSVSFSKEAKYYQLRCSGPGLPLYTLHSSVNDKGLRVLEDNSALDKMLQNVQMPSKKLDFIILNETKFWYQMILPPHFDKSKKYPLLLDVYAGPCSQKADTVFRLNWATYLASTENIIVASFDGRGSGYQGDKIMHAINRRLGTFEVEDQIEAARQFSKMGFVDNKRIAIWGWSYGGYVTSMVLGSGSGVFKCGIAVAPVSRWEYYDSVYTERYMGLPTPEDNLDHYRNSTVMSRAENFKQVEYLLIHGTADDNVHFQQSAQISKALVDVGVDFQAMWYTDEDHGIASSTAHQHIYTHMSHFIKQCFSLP
T7 sequence (P27487 39-766): as the sequence (P27487 39-766 limits assumed) above
T5 sequence (Q6V1X1 17-898): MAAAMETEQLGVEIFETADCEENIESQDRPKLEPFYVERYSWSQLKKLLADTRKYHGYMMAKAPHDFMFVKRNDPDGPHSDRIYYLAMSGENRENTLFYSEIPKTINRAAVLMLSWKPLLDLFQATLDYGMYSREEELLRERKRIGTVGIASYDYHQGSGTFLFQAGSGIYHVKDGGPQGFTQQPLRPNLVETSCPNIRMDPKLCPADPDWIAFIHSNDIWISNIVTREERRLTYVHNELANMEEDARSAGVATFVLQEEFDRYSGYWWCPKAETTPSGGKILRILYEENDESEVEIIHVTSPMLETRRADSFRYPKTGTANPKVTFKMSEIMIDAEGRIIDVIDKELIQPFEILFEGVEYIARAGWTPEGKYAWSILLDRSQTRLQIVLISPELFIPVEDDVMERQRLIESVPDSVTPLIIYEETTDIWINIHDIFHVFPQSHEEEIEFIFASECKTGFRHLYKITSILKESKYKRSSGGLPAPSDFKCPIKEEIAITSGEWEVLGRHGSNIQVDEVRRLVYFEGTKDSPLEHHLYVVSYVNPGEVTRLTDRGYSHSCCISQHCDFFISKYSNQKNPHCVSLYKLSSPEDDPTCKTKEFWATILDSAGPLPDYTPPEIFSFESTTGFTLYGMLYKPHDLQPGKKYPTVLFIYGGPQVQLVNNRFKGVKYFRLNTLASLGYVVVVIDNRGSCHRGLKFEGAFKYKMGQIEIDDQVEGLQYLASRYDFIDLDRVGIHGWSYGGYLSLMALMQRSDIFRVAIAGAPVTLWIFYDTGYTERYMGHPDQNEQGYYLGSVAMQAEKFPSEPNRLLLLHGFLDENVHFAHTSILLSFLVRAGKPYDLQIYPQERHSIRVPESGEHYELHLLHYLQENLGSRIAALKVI

For orientation: IC50 means the concentration at which inhibition is half-maximal. Usually Hill coefficient stands for the slope factor of the fitted curve. For `N#C[C@@H]1CCCN1C(=O)CNC12CC3CC(C1)CC(O[C@@H]1O[C@H](C(=O)O)[C@@H](O)[C@H](O)[C@H]1O)(C3)C2` [NVP-BQS867-NX-2], the IC50 in assay [1] (setting [2]) is 0.003 µM and 0.004 µM; in assay [1] (setting [3]) it was 0.004 ± 0.001 µM; at human FAP (setting [2]) it was 43 µM and 16 µM and 19 µM; on human FAP (setting [3]), 24 ± 13 µM; on human DPP-9 (human DPP-9, individual experiments 1-4, read-out: IC50 value), 0.7 µM and 0.4 µM and 0.6 µM; at human DPP-9 (human DPP-9, mean of 4 experiments, read-out: Mean IC50 value ± SD), 0.5 ± 0.2 µM. For the same compound, the IC50 at human DPP-2 (setting [2]) is over 300 µM; at human DPP-2 (setting [3]), over 90 µM; at human DPP-8 (human DPP-8, individual experiments 1-4, read-out: IC50 value), 8.3 µM and 8 µM and 8.1 µM and 7.6 µM; on human DPP-8 (human DPP-8, mean of 4 experiments, read-out: Mean IC50 value ± SD), 8 ± 0.3 µM; on human PEP (setting [2]) it was 52 µM and 15 µM and 18 µM and 14 µM; at human PEP (setting [3]), 25 ± 18 µM. Also, the IC50 on human DPP-IV (human DPP-IV, individual experiments 1-4, read-out: IC50 value) was 0.004 µM and 0.006 µM and 0.007 µM and 0.005 µM; at human DPP-IV (human DPP-IV, mean of 4 experiments, read-out: Mean IC50 value ± SD), 0.006 ± 0.001 µM. Also, the Hill coefficient is 1.4 (2×) and 1.2 (2×) in assay [1] (individual experiments 1-4); 1.3 and 0.8 (2×) and 0.7 on human FAP (individual experiments 1-4); 1.0 (2×) and 0.9 (2×) on human DPP-9 (human DPP-9, individual experiments 1-4); 1.2 (3×) and 1.3 at human DPP-8 (human DPP-8, individual experiments 1-4); 0.7 and 1.2 and 0.8 and 0.6 at human PEP (individual experiments 1-4); 0.7 and 0.9 and 1.3 and 1.1 on human DPP-IV (human DPP-IV, individual experiments 1-4). The “potency at inhibiting DPP-9 enzyme” value at human DPP-9 (compared with vildagliptin) was “less potent”. On human DPP-8 (compared with vildagliptin), the “potency at inhibiting DPP-8 enzyme” value was “less potent”. The “potency at inhibiting the DPP-4 enzyme” value at human DPP-IV (compared with vildagliptin) was “equally potent to vildagliptin”.
